Test results reported in patent US10927123B2, “Modulators of the beta-3 adrenergic receptor useful for the treatment or prevention of disorders related thereto” (Arena Pharmaceuticals, Inc., priority 2016, dated 2021).

Target: Beta-3 Adrenergic Receptor (Homo sapiens (Human), UniProt P13945)
Test: HTRF cAMP antagonist assay (IC50 determination)
Type: cell-based
Details: CHO-K1 cells stably expressing recombinant receptor; antagonism of isoproterenol at EC90; cAMP readout
Procedure, shortened: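 Antagonist mode: isoproterenol at its predetermined EC90 added after compound to recombinant CHO-K1 cells in IBMX-containing PBS, 1 h, room temperature. Compounds tested as 5-fold, 10-point dilutions, top final typically 10 or 100 μM. HTRF signal converted to cAMP via standard curve, giving IC50.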

Sequence of Beta-3 Adrenergic Receptor (P13945 whole entry, species assumed): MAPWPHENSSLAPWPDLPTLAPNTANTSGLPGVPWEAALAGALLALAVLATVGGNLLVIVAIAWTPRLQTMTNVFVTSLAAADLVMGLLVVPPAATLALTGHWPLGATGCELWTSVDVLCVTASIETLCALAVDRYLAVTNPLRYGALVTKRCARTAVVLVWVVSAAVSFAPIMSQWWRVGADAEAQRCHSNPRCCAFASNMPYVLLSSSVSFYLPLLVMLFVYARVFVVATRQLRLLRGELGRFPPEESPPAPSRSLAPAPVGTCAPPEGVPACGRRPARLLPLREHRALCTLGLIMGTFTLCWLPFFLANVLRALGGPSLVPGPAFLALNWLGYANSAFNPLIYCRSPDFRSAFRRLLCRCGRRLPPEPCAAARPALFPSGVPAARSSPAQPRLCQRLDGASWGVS

Row | SMILES | IC50 [nM]
1 | CCS(=O)(=O)c1cccc(OC[C@@H](O)CN[C@H]2COC3(CCN(S(=O)(=O)c4cnc5ccccc5c4)CC3)C2)c1 [Compound 122, (S)-1-(3-(ethylsulfonyl)phenoxy)-3-((R)-8-(quinolin-3-ylsulfonyl)-1-oxa-8-azaspiro[4.5]decan-3-ylamino)propan-2-ol] | 7.81
2 | CC(C)CS(=O)(=O)c1cccc(OC[C@@H](O)CN[C@H]2COC3(CCN(S(=O)(=O)c4cnc5ccccc5c4)CC3)C2)c1 [Compound 124, (S)-1-(3-(isobutylsulfonyl)phenoxy)-3-((R)-8-(quinolin-3-ylsulfonyl)-1-oxa-8-azaspiro[4.5]decan-3-ylamino)propan-2-ol] | 78.2
3 | O=S(=O)(CCO)c1cccc(OC[C@@H](O)CN[C@H]2COC3(CCN(S(=O)(=O)c4cccc(-c5cccc(C(F)(F)F)n5)c4)CC3)C2)c1 [Compound 125, (S)-1-(3-(2-hydroxyethylsulfonyl)phenoxy)-3-((R)-8-(3-(6-(trifluoromethyl)pyridin-2-yl)phenylsulfonyl)-1-oxa-8-azaspiro[4.5]decan-3-ylamino)propan-2-ol] | 48.8
4 | O=S(=O)(CCO)c1cccc(OC[C@@H](O)CN[C@H]2COC3(CCN(S(=O)(=O)c4cccc(-c5ncccc5F)c4)CC3)C2)c1 [Compound 126, (S)-1-((R)-8-(3-(3-fluoropyridin-2-yl)phenylsulfonyl)-1-oxa-8-azaspiro[4.5]decan-3-ylamino)-3-(3-(2-hydroxyethylsulfonyl)phenoxy)propan-2-ol] | 126
5 | Cc1ccc(-c2cccc(S(=O)(=O)N3CCC4(CC3)C[C@@H](NC[C@H](O)COc3cccc(S(=O)(=O)CCO)c3)CO4)c2)nc1 [Compound 127, (S)-1-(3-(2-hydroxyethylsulfonyl)phenoxy)-3-((R)-8-(3-(5-methylpyridin-2-yl)phenylsulfonyl)-1-oxa-8-azaspiro[4.5]decan-3-ylamino)propan-2-ol] | 157
6 | Cc1cccc(-c2cccc(S(=O)(=O)N3CCC4(CC3)C[C@@H](NC[C@H](O)COc3cccc(S(=O)(=O)CCO)c3)CO4)c2)n1 [Compound 128, (S)-1-(3-(2-hydroxyethylsulfonyl)phenoxy)-3-((R)-8-(3-(6-methylpyridin-2-yl)phenylsulfonyl)-1-oxa-8-azaspiro[4.5]decan-3-ylamino)propan-2-ol] | 108
7 | Cc1ccnc(-c2cccc(S(=O)(=O)N3CCC4(CC3)C[C@@H](NC[C@H](O)COc3cccc(S(=O)(=O)CCO)c3)CO4)c2)c1 [Compound 129, (S)-1-(3-(2-hydroxyethylsulfonyl)phenoxy)-3-((R)-8-(3-(4-methylpyridin-2-yl)phenylsulfonyl)-1-oxa-8-azaspiro[4.5]decan-3-ylamino)propan-2-ol] | 485
8 | O=S(=O)(c1cnc2ccccc2c1)N1CCC2(CC1)C[C@@H](NC[C@H](O)COc1cccc(S(=O)(=O)C(F)(F)CO)c1)CO2 [Compound 130, (S)-1-(3-(1,1-difluoro-2-hydroxyethylsulfonyl)phenoxy)-3-((R)-8-(quinolin-3-ylsulfonyl)-1-oxa-8-azaspiro[4.5]decan-3-ylamino)propan-2-ol] | 12
9 | COCS(=O)(=O)c1cccc(OC[C@@H](O)CN[C@H]2COC3(CCN(S(=O)(=O)c4ccc5ncccc5c4)CC3)C2)c1 [Compound 131, (S)-1-(3-(methoxymethylsulfonyl)phenoxy)-3-((R)-8-(quinolin-6-ylsulfonyl)-1-oxa-8-azaspiro[4.5]decan-3-ylamino)propan-2-ol] | 23.7
10 | COCCCS(=O)(=O)c1cccc(OC[C@@H](O)CN[C@H]2COC3(CCN(S(=O)(=O)c4ccc5ncccc5c4)CC3)C2)c1 [Compound 132, (S)-1-(3-(3-methoxypropylsulfonyl)phenoxy)-3-((R)-8-(quinolin-6-ylsulfonyl)-1-oxa-8-azaspiro[4.5]decan-3-ylamino)propan-2-ol] | 739
11 | NC(=O)CCS(=O)(=O)c1cccc(OC[C@@H](O)CN[C@H]2COC3(CCN(S(=O)(=O)c4ccc5ncccc5c4)CC3)C2)c1 [Compound 133, 3-(3-((S)-2-hydroxy-3-((R)-8-(quinolin-6-ylsulfonyl)-1-oxa-8-azaspiro[4.5]decan-3-ylamino)propoxy)phenylsulfonyl)propanamide] | 443
12 | O=S(=O)(CCO)c1cccc(OC[C@@H](O)CN[C@H]2COC3(CCN(S(=O)(=O)c4cccc(-c5cccc(F)n5)c4)CC3)C2)c1 [Compound 134, (S)-1-((R)-8-(3-(6-fluoropyridin-2-yl)phenylsulfonyl)-1-oxa-8-azaspiro[4.5]decan-3-ylamino)-3-(3-(2-hydroxyethylsulfonyl)phenoxy)propan-2-ol] | 55.1
13 | O=S(=O)(CCCO)c1cccc(OC[C@@H](O)CN[C@H]2COC3(CCN(S(=O)(=O)c4cnc5ccccc5c4)CC3)C2)c1 [Compound 135, 3-(3-((S)-2-hydroxy-3-((R)-8-(quinolin-3-ylsulfonyl)-1-oxa-8-azaspiro[4.5]decan-3-ylamino)propoxy)phenylsulfonyl)propan-1-ol] | 88.8
14 | O=S(=O)(c1cnc2ccccc2c1)N1CCC2(CC1)C[C@@H](NC[C@H](O)COc1cccc(S(=O)(=O)C3(CO)CC3)c1)CO2 [Compound 136, (S)-1-(3-(1-(hydroxymethyl)cyclopropylsulfonyl)phenoxy)-3-((R)-8-(quinolin-3-ylsulfonyl)-1-oxa-8-azaspiro[4.5]decan-3-ylamino)propan-2-ol] | 18.8
15 | NC(=O)CS(=O)(=O)c1cccc(OC[C@@H](O)CN[C@H]2COC3(CCN(S(=O)(=O)c4ccc5ncccc5c4)CC3)C2)c1 [Compound 137, 2-(3-((S)-2-hydroxy-3-((R)-8-(quinolin-6-ylsulfonyl)-1-oxa-8-azaspiro[4.5]decan-3-ylamino)propoxy)phenylsulfonyl)acetamide] | 350
16 | O=S(=O)(c1cccc(OC[C@@H](O)CN[C@H]2COC3(CCN(S(=O)(=O)c4cnc5ccccc5c4)CC3)C2)c1)C1CCC1 [Compound 138, (S)-1-(3-(cyclobutylsulfonyl)phenoxy)-3-((R)-8-(quinolin-3-ylsulfonyl)-1-oxa-8-azaspiro[4.5]decan-3-ylamino)propan-2-ol] | 20.4
17 | CCCS(=O)(=O)c1cccc(OC[C@@H](O)CN[C@H]2COC3(CCN(S(=O)(=O)c4cnc5ccccc5c4)CC3)C2)c1 [Compound 139, (S)-1-(3-(propylsulfonyl)phenoxy)-3-((R)-8-(quinolin-3-ylsulfonyl)-1-oxa-8-azaspiro[4.5]decan-3-ylamino)propan-2-ol] | 36.2
18 | O=S(=O)(CC1CC1)c1cccc(OC[C@@H](O)CN[C@H]2COC3(CCN(S(=O)(=O)c4cnc5ccccc5c4)CC3)C2)c1 [Compound 140, (S)-1-(3-(cyclopropylmethylsulfonyl)phenoxy)-3-((R)-8-(quinolin-3-ylsulfonyl)-1-oxa-8-azaspiro[4.5]decan-3-ylamino)propan-2-ol] | 45.9
19 | COCS(=O)(=O)c1cccc(OC[C@@H](O)CN[C@H]2COC3(CCN(S(=O)(=O)c4cnc5ccccc5c4)CC3)C2)c1 [Compound 141, (S)-1-(3-(methoxymethylsulfonyl)phenoxy)-3-((R)-8-(quinolin-3-ylsulfonyl)-1-oxa-8-azaspiro[4.5]decan-3-ylamino)propan-2-ol] | 11.6
20 | NC(=O)CCS(=O)(=O)c1cccc(OC[C@@H](O)CN[C@H]2COC3(CCN(S(=O)(=O)c4cnc5ccccc5c4)CC3)C2)c1 [Compound 142, 3-(3-((S)-2-hydroxy-3-((R)-8-(quinolin-3-ylsulfonyl)-1-oxa-8-azaspiro[4.5]decan-3-ylamino)propoxy)phenylsulfonyl)propanamide] | 106
